Values of other authors as cited in patent publication US7410699B2, “Finely particulate composite containing carbon compound encapsulated in a polymer micelle of a block copolymer” (Japan Science and Technology Agency, priority 2003, dated 2008).

Conditions: Journal of Colloid and Interface Science, 263, (2003), 1-3

Q: Which “water-solubility (amount of solubilized fullerene)” value does the source give for `c12c3c4c5c1c1c6c7c2c2c8c3c3c9c4c4c%10c5c5c1c1c6c6c%11c7c2c2c7c8c3c3c8c9c4c4c9c%10c5c5c1c1c6c6c%11c2c2c7c3c3c8c4c4c9c5c1c1c6c2c3c41` [fullerene] here?
A: 21.0 µg/mL
